“And” between values parts separate entries of the source, which are not always exact repeats. Identical values can stand only once. Like-named read-outs stand apart in the source and are kept apart here. Where a SMILES comes first, the peptide text is derived from it. [ ]: non-standard residue; d: D form.
How the values were obtained:
[1] = Plasma pharmacokinetics of the APi2355 SAIB formulation over 42 days after single-dose subcutaneous administration; assay type: in vivo, male Sprague Dawley rats; settings: for Tmax: sc
Experimental: (§1) The plasma pharmacokinetics of the Cav-1 peptide (APi2355) SAIB formulation prepared according to Example 1 (5.66% w/w APi2355 75.47% w/w SAIB and 18.87% w/w NMP to provide 7% w/w APi2355 to 93% w/w SAIB) were assessed over 42 days after a single-dose subcutaneous administration to male Sprague Dawley rats. The rats (n=6) received one of three batches of the APi2355 SAIB formulations prepared according to Example 1 at a dose of 2.0 mg/kg of APi2355 in 0.033 mL/kg (concentration 60.0 mg/mL). Control group of rats (n=2) received an injection of vehicle formulation containing no APi2355.
Animals were assigned to groups by a stratified randomization scheme designed to achieve similar group mean body weights. The animals were acclimated to their designated housing for at least 5 days before the day dosing. All formulations were administered in a single dose by dorsal subcutaneous (SC) injection on day 0. […] Whole blood samples (40-50 μl, by tail nick) were collected from all animals in control group at pre-dose and at 1 h and 1 day post-treatment. Blood was collected into K2EDTA tubes. Tubes were mixed gently after blood collection, chilled and centrifuged at 3000 rpm and 4° C., within 30 minutes upon collection. The resultant plasma was separated, transferred to uniquely labeled polypropylene tubes and frozen at −20° C. Plasma and tissue samples were analyzed for concentration of APi2355 using a qualified analytical procedure for LC/MS/MS.
(§2) Terminal whole blood samples (maximal volume by cardiac stick) and tissues were collected from all animals on day 42 post-treatment. Tissues included tissues from heart, liver, kidney, lung, and injection site skin patches. Additionally, lungs were processed for bronchial lavage samples. Tissue samples were analyzed for APi2355 by LC/MS/MS.

[2] = APi2355 concentrations in various tissues at 42 days post treatment (LC/MS/MS); assay type: in vivo; settings: male, Sprague Dawley, rat, sc, 2 mg/kg, mean of 6 rats, single SC 2.0 mg/kg in SAIB formulation
Experimental: as §1
Animals were assigned to groups by a stratified randomization scheme designed to achieve similar group mean body weights. The animals were acclimated to their designated housing for at least 5 days before the day dosing. All formulations were administered in a single dose by dorsal subcutaneous (SC) injection on day 0. Whole blood samples (40-50 μl) were collected from all animals in APi2355 treated group at pre-dose and 1 h, 2 h, 4 h, 8 h, 1 day, 2 days, 4 days, 7 days, 10 days, 14 days, 21 days, 29 days, and 35 days post-treatment. Whole blood samples (40-50 μl, by tail nick) were collected from all animals in control group at pre-dose and at 1 h and 1 day post-treatment. Blood was collected into K2EDTA tubes. Tubes were mixed gently after blood collection, chilled and centrifuged at 3000 rpm and 4° C., within 30 minutes upon collection. The resultant plasma was separated, transferred to uniquely labeled polypropylene tubes and frozen at −20° C. Plasma and tissue samples were analyzed for concentration of APi2355 using a qualified analytical procedure for LC/MS/MS.
as §2

[3] = individual rats, single SC 2.0 mg/kg APi2355 in SAIB formulation, 2 mg/kg
[4] = rat plasma, single SC 2.0 mg/kg in SAIB formulation

AUC0-14, Mean ([1]; dose to day 14, rat plasma, single SC 2.0 mg/kg in SAIB formulation): 126 ng·days/mL
AUC0-22, Mean ([1]; dose to day 22, rat plasma, single SC 2.0 mg/kg in SAIB formulation): 146 ng·days/mL
AUCinf, Mean ([1]; extrapolated to infinity (AUClast + Clast/λz), rat plasma, single SC 2.0 mg/kg in SAIB formulation): 183 ng·days/mL
CL/F ([1]; in vivo, apparent plasma clearance, rat, single SC 2.0 mg/kg in SAIB formulation): 6.94 mL/min/kg
Vd/F ([1]; in vivo, apparent volume of distribution, terminal phase, rat, single SC 2.0 mg/kg in SAIB formulation, read-out: Vz/F, Mean): 133 L/kg
AUC(0-t) ([1]; in vivo, log/linear trapezoidal method, rat plasma, single SC 2.0 mg/kg in SAIB formulation, read-out: AUClast, Mean (converted)): 3940 ng·h/mL
Cmax ([1]; in vivo, rat plasma, single SC 2.0 mg/kg APi2355 in SAIB formulation): 477 ng/mL
half-life ([1]; in vivo, rat plasma, single SC 2.0 mg/kg in SAIB formulation, read-out: Half-life (terminal), Mean (converted)): 222 h
MRT last ([1]; in vivo, rat plasma, single SC 2.0 mg/kg in SAIB formulation, read-out: MRTlast, Mean (converted)): 188 h
Clast, Mean ([1]; last measurable concentration, rat plasma, single SC 2.0 mg/kg in SAIB formulation): 0.942 ng/mL
level at 1 h ([1]; male, Sprague Dawley, rat, plasma, mean of 6 rats, single SC 2.0 mg/kg APi2355 in SAIB formulation, read-out: APi2355 plasma concentration 1 hr post-treatment, Mean): 215 ng/mL
level at 2 h ([1]; male, Sprague Dawley, rat, plasma, mean of 6 rats, single SC 2.0 mg/kg APi2355 in SAIB formulation, read-out: APi2355 plasma concentration 2 hr post-treatment, Mean): 398 ng/mL
level at 4 h ([1]; male, Sprague Dawley, rat, plasma, mean of 6 rats, single SC 2.0 mg/kg APi2355 in SAIB formulation, read-out: APi2355 plasma concentration 4 hr post-treatment, Mean): 129 ng/mL
level at 8 h ([1]; male, Sprague Dawley, rat, plasma, mean of 6 rats, single SC 2.0 mg/kg APi2355 in SAIB formulation, read-out: APi2355 plasma concentration 8 hr post-treatment, Mean): 53.5 ng/mL
level at 24 h ([1]; male, Sprague Dawley, rat, plasma, mean of 6 rats, single SC 2.0 mg/kg APi2355 in SAIB formulation, read-out: APi2355 plasma concentration 1 day post-treatment, Mean): 16.7 ng/mL
level at 48 h ([1]; male, Sprague Dawley, rat, plasma, mean of 6 rats, single SC 2.0 mg/kg APi2355 in SAIB formulation, read-out: APi2355 plasma concentration 2 day post-treatment, Mean): 7.09 ng/mL
level at 96 h ([1]; male, Sprague Dawley, rat, plasma, mean of 6 rats, single SC 2.0 mg/kg APi2355 in SAIB formulation, read-out: APi2355 plasma concentration 4 day post-treatment, Mean): 2.46 ng/mL
level at 168 h ([1]; male, Sprague Dawley, rat, plasma, mean of 6 rats, single SC 2.0 mg/kg APi2355 in SAIB formulation, read-out: APi2355 plasma concentration 7 day post-treatment, Mean): 5.36 ng/mL
level at 240 h ([1]; male, Sprague Dawley, rat, plasma, mean of 6 rats, single SC 2.0 mg/kg APi2355 in SAIB formulation, read-out: APi2355 plasma concentration 10 day post-treatment, Mean): 4.01 ng/mL
level at 336 h ([1]; male, Sprague Dawley, rat, plasma, mean of 6 rats, single SC 2.0 mg/kg APi2355 in SAIB formulation, read-out: APi2355 plasma concentration 14 day post-treatment, Mean): 2.73 ng/mL
level at 528 h ([1]; male, Sprague Dawley, rat, plasma, mean of 6 rats, single SC 2.0 mg/kg APi2355 in SAIB formulation, read-out: APi2355 plasma concentration 22 day post-treatment, Mean): 2.61 ng/mL
level at 696 h ([1]; male, Sprague Dawley, rat, plasma, mean of 6 rats, single SC 2.0 mg/kg APi2355 in SAIB formulation, read-out: APi2355 plasma concentration 29 day post-treatment, Mean): 0.62 ng/mL
level at 840 h ([1]; male, Sprague Dawley, rat, plasma, mean of 6 rats, single SC 2.0 mg/kg APi2355 in SAIB formulation, read-out: APi2355 plasma concentration 35 day post-treatment, Mean): 1.29 ng/mL
level at 1008 h ([1]; male, Sprague Dawley, rat, plasma, mean of 6 rats, single SC 2.0 mg/kg APi2355 in SAIB formulation, read-out: APi2355 plasma concentration 42 day post-treatment, Mean): 0.23 ng/mL
APi2355 detectable in the plasma following administration ([1]; number of rats, single SC 2.0 mg/kg in SAIB formulation): 4 out of 6
% AUC Extrap, Mean [1, 4]: 9.00%
extrapolated AUC of AUCinf [1, 4]: < 20%
fraction of the total exposure of APi2355 occurring in the first 3 weeks after SC administration [1, 4]: Approximately ⅔
Tmax ([1]; rat, in vivo, 2 mg/kg, rat plasma, single SC 2.0 mg/kg APi2355 in SAIB formulation, read-out: Tmax, Mean (converted)): 1.99 h
Tmax ([1]; rat, in vivo, 2 mg/kg, rat plasma, single SC 2.0 mg/kg APi2355 in SAIB formulation, read-out: Tmax, median (converted)): 1.99 h
Tlast, Mean ([1]; time of last quantifiable concentration, rat plasma, single SC 2.0 mg/kg in SAIB formulation): 39.7 days
level at 1008 h ([2]; bronchoalveolar lavage fluid (BALF), read-out: Concentration in BALF (bronchoalveolar lavage fluid), Mean): 0.99 ng/mL
tissue level at time at 1008 h ([2]; heart, read-out: Concentration in Heart, Mean): 12.1 ng/g
tissue level at time at 1008 h ([2]; injection site skin, injection site skin, read-out: Concentration in Skin, Mean): 4.95 ng/g
tissue level at time at 1008 h ([2]; kidney, read-out: Concentration in Kidney, Mean): 53.2 ng/g
tissue level at time at 1008 h ([2]; liver, read-out: Concentration in Liver, Mean): 1.23 ng/g
tissue level at time at 1008 h ([2]; lung, read-out: Concentration in Lung, Mean): 68 ng/g
Structure (SMILES): CC(=O)N[C@H](C)C(=O)N[C@H](C)C(=O)N[C@@H](CCC(=O)O)C(=O)NCC(=O)N[C@@H](CCCCN)C(=O)N[C@@H](C)C(=O)N[C@@H](CO)C(=O)N[C@@H](Cc1ccccc1)C(=O)N[C@H](C(=O)N[C@H](C(=O)N[C@@H](Cc1ccccc1)C(=O)N[C@H](C(=O)N[C@H](C(=O)N[C@H](C(=O)N[C@@H](CCCCN)C(=O)NCC(=O)N[C@@H](CO)C(=O)N[C@H](C)C(=O)N[C@H](C)C(N)=O)[C@@H](C)O)C(C)C)[C@@H](C)O)[C@@H](C)O)[C@@H](C)O [APi2355, Ac-aaEGKASFTTFTVTKGSaa-NH2] (Ac-[dA][dA]EGKASFTTFTVTKGS[dA][dA]-NH2)
APi2355 plasma concentration 1 hr post-treatment [1, 3]: 202.00 ng/mL and 232.90 ng/mL and 109.02 ng/mL and 101.53 ng/mL and 84.70 ng/mL and 557.93 ng/mL
APi2355 plasma concentration 2 hr post-treatment [1, 3]: 884.98 ng/mL and 111.43 ng/mL and 37.62 ng/mL and 317.55 ng/mL and 539.82 ng/mL and 497.89 ng/mL
APi2355 plasma concentration 4 hr post-treatment [1, 3]: 26.95 ng/mL and 102.25 ng/mL and 328.27 ng/mL and 164.91 ng/mL and 97.42 ng/mL and 52.01 ng/mL
APi2355 plasma concentration 8 hr post-treatment [1, 3]: 23.90 ng/mL and 54.20 ng/mL and 80.69 ng/mL and 75.60 ng/mL and 47.06 ng/mL and 39.24 ng/mL
APi2355 plasma concentration 1 day post-treatment [1, 3]: 10.32 ng/mL and 11.86 ng/mL and 20.55 ng/mL and 12.72 ng/mL and 19.85 ng/mL and 25.11 ng/mL
APi2355 plasma concentration 2 day post-treatment [1, 3]: 6.13 ng/mL and 3.87 ng/mL and 2.54 ng/mL and 8.72 ng/mL and 14.40 ng/mL and 6.90 ng/mL
APi2355 plasma concentration 4 day post-treatment [1, 3]: 4.65 ng/mL and 3.40 ng/mL and 1.29 ng/mL and 2.17 ng/mL and 1.84 ng/mL and 1.41 ng/mL
APi2355 plasma concentration 7 day post-treatment [1, 3]: 15.91 ng/mL and 5.07 ng/mL and 2.40 ng/mL and 2.14 ng/mL and 5.18 ng/mL and 1.44 ng/mL
APi2355 plasma concentration 10 day post-treatment [1, 3]: 2.09 ng/mL and 2.04 ng/mL and 10.43 ng/mL and 5.54 ng/mL and 2.38 ng/mL and 1.58 ng/mL
APi2355 plasma concentration 14 day post-treatment [1, 3]: 1.66 ng/mL and 1.24 ng/mL and 7.00 ng/mL and 1.83 ng/mL and 1.64 ng/mL and 3.04 ng/mL
APi2355 plasma concentration 22 day post-treatment [1, 3]: 1.68 ng/mL and 1.87 ng/mL and 2.49 ng/mL and 5.68 ng/mL and 1.98 ng/mL and 1.93 ng/mL
APi2355 plasma concentration 29 day post-treatment [1, 3]: 0.98 ng/mL and 0.50 ng/mL and 0.85 ng/mL and 0.65 ng/mL and 0.58 ng/mL and 0.16 ng/mL
APi2355 plasma concentration 35 day post-treatment [1, 3]: 0.81 ng/mL and 1.13 ng/mL and 0.78 ng/mL and 0.10 ng/mL and 0.72 ng/mL and 4.20 ng/mL
APi2355 plasma concentration 42 day post-treatment [1, 3]: 0.88 ng/mL and 0.29 ng/mL and 0.15 ng/mL and 0.00 ng/mL (2×) and 0.04 ng/mL

— patent US20260256873A1, “MODIFIED CAVEOLIN-1 PEPTIDE FORMULATIONS AND METHODS OF MANUFACTURING AND USE THEREOF” (LUNG THERAPEUTICS, INC., priority 2022, published 2026)
